For one assay, the system named is H1299 cells. Kind of assay: Proliferation of H1299 lung cancer cells. It counts as cell-based. How it is done: (§1) A. Cell lines HBE, H1299 and H460 were cultured. Expression of EGFR, ER-α66, ER-α46, ER-α36, ER-β, GPER-1 were tested using Western blot. B. HBE cells and H460 cells were treated with 2 μM tamoxifen or 2 μM lasofoxifene. Proliferation of HBE cells and H460 cells were shown after each treatment. C. H460 cells were treated with vehicle only, or gefitinib, or lasofoxifene, or a combination of gefitinib and lasofoxifene. Proliferation of […] were shown after each treatment. D. H1299 were treated with vehicle only, or gefitinib, or lasofoxifene, or a combination of gefitinib and lasofoxifene. Proliferation of lung cancer cells was shown after each treatment.
(§2) Cells were inoculated into 24 well plates with culture medium and treated using the designated concentration of drugs. Cell number was counted using a cell counter (Count Star). The cell bio-behaviors including total cell number and movement were measured using a real-time cell monitoring system. Briefly, the image was captured at 5 min intervals for 66 h. Cell morphological parameters and the movement of each individual cell was calculated following manufacture's instruction.
(§3) We thus tested the expression of ER-α36 from lung cancer cells.

A further assay relates to H460 cells. Nature of the assay: Proliferation of H460 lung cancer cells. The class given is cell-based. Conditions: for proliferation of H460 cells: 2 μM, ER-α36+/EGFR+ cells, FIG. 5-B. Here is the method:
as §1, §2, §3

The subject of another assay is MCF-7 cells. Kind of assay: Inhibition of MCF-7 cell division, cells pre-cultured with or without insulin. It counts as cell-based, human. Conditions: same drug compared between ER-α36 positive (insulin-free) and insulin medium cells, FIG. 3B. How it is done: A. MCF-7 cells were grown in insulin-free (IL-) medium for three months. Expression of ER-α66, ER-α36, ER-β and GPER were tested using Western blot. B. MCF-7 cells, after cultured in either medium with insulin or without insulin, were treated with tamoxifen or lasofoxifene. […] C. It compares IC50 (μM) of MCF-7 cells responding to tamoxifen or lasofoxifene at the condition of pre-cultured in medium without insulin. *** indicates P<0.001. D. Graph compares IC50 (μM) of MCF-7 cells responding to tamoxifen or lasofoxifene at the condition of pre-cultured in medium with insulin. * indicates P<0.05.
The transcription variant of ER-α36 lacks the AF-1 and AF2 domains. […] It was found located at plasma membrane and cytosol (Boonyaratanakornkit, V. Steroids. 2011 August; 76(9):877-84). […] Phosphorylated IRS interacts with dimer estrogen-ER complexes, which can then translocate into the nucleus and bond with ERE sequence to regulate RNA transcription through the estrogen classical nuclear pathway. […] In contrast, the expression levels of other estrogen receptors were not affected (FIG. 3A).

The test system of assay [1] is BT474 breast cancer cells. Nature of the assay: Proliferation of Herceptin-resistance BT474 breast cancer cells. The class given is cell-based. Conditions: cells treated with 10 μg/ml Herceptin 3 months; 2 μM lasofoxifene, FIG. 10B. Here is the method:
BT474 breast cancer cells were treated with 10 μg/ml Herceptin® in medium for 3 months. A. Cells positively expressed of ER-α36, and decreased the expression level of HER2.

The next assay relates to gastric cancer cells. Kind of assay: Gastric cancer cell division. It counts as cell-based. As to conditions: ER-α36 positive gastric cancer cells, FIG. 8-D. The text has this: (§4) A: ER-α36 was positively expressed in colon cancer cells. […] NCC: normal colon cells. CCC: colon cancer cells. C: ER-α36 was positively expressed in gastric cancer cells. […] NGC: normal gastric cells. GCC: gastric cancer cells. N=3×3; *** means P<0.001.

The next assay relates to colon cancer cells. Kind of assay: Colon cancer cell division. As to conditions: ER-α36 positive colon cancer cells, FIG. 8-B. The class given is cell-based.
Source text: as §4

Another assay has as its target ER-β (Homo sapiens, UniProt Q92731). As to conditions: higher affinity than raloxifene and tamoxifen; Gennari 2006; cited from earlier work.
The next assay has as its target T1, GPER1 (Homo sapiens, UniProt Q99527).
T1 construct: expressed in transfected cells; host or cells: HEK293
Kind of assay: Cytosolic Ca2+ in HEK293 cells overexpressing GPER1-EGFP (Fura-red). It counts as cell-based. Conditions: HEK293 overexpressing GPER1-EGFP vs EGFP vector, FIG. 11B.

Assay [2] concerns tamoxifen-resistance MCF-7 cells. Kind of assay: Proliferation of acquired tamoxifen-resistance MCF-7 cells. It counts as cell-based, human. Conditions: FIG. 4B. Here is the method: A. MCF-7 cells were treated with tamoxifen for ten months. Expression of ER-α66, ER-α46, ER-α36, GPER-1 were tested using Western blot. B. After MCF-7 cells were treated with tamoxifen for ten months, cells were treated with either 2 μM tamoxifen or 2 μM lasofoxifene. Proliferation of MCF-7 were shown under each treatment. ** indicates P<0.01.
MCF-7 cells were grown in EMEM medium containing 10% FBS, antibiotics and 0.1 μM tamoxifen for three months. And then increase tamoxifen concentration to 0.5 μM for another three months, Finally, MCF-7 cells were grown in EMEM medium containing 10% FBS, antibiotics and 1 μM tamoxifen for four months. Tamoxifen-resistance MCF-7 cells were tested by counting cell proliferation rate when cells were grown in high concentration tamoxifen.
To verify our hypothesis that overexpressed ER-α36 variant may result in acquired de novo tamoxifen-resistance, we induced MCF-7 cells using tamoxifen for ten months. We found the expression of ER-α66 was decreased ([…], top panel). In contrast, the expression level of ER-α36 was enhanced (FIG. 4A, middle panel). The expression level of GPER1 was not affected (FIG. 4A bottom panel).

The next assay has as its system xenograft H460 tumors. Kind of assay: Growth of xenograft H460 tumors in nude mice. It counts as in vivo. Conditions: intragastric daily for 2-3 weeks, FIG. 7. Here is the method:
FIG. 7: Activity to Inhibition of growth of xenograft-ER-α36+/EGFR+ lung tumor (H460) in nude mice by lasofoxifene (LAS) and/or gefitinib. A. Nude mice were grafted with H460 cells. Tumor size were shown after treatment with gefitinib, 3 mg lasofoxifene per kilogram of mouse body mass (3 mg/kg, Las3.0), 1.5 mg lasofoxifene per kilogram of mouse body mass (1.5 mg/kg, Las1.5), 0.75 mg lasofoxifene per kilogram of mouse body mass (0.75 mg/kg, Las0.75), or a combination of gefitinib and 1.5 mg lasofoxifene per kilogram of mouse body mass (Gef+Las1.5). B. Statistical result of tumor mass from two repeat experiments (n≥6).* and ** mean P<0.05 and P<0.01, respectively.
H460 cells were grown in RPMI-1640 medium containing 10% FBS. When cells are 70-80% confluent and ready for experiments, replace medium with fresh medium for 3 hours. Remove medium and wash cells with medium without FBS for three times. Cells were then trypsinized and suspended in medium, equal volume of cells and support gel was mixed up to 200 μl for each injection. Cells were injected subcutaneously (s.c.) into 4-6 week old nude mice. 1.0˜2.0×10^6 H460 cells were administrated into each nude mouse. […] Tumor size were calculated by the formula: volume=(width)^2×length/2.
To verify in vitro results, we constructed xenograft H460 tumors in nude mice. The tumor size was measured using digital vernier caliper. […]

Another assay has as its system HBE cells. Nature of the assay: Proliferation of HBE cells. As to conditions: 2 μM, cells not expressing ER-α36, FIG. 5-B. The class given is cell-based. Here is the method:
as §1, §2, §3

The target in the next assay is T2, ER-α (Homo sapiens, UniProt P03372).
T2 sequence (P03372 311-547 limits assumed): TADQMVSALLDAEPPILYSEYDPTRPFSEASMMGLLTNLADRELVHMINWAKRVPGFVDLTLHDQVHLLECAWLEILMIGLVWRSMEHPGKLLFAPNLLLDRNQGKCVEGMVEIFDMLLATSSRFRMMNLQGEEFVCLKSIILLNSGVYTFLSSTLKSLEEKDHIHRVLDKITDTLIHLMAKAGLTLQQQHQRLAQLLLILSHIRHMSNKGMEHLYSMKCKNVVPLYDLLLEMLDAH
As to conditions: cited from earlier work.

Assay [3] deals with Bcl-2 expression in MCF-7 cells. Nature of the assay: Bcl-2 expression in MCF-7 cells by western blotting. As to conditions: for effect on Bcl-2 expression in medium without estrogen: MCF-7, charcoal stripped FBS, phenol red-free EMEM, vs Blank, FIG. 2B. It counts as cell-based, human. How it is done:
FIG. 2: Inhibition of Bcl-2 expression in MCF-7 cells by lasofoxifene in comparison with tamoxifen. A: MCF-7 cells were cultured in either EMEM medium containing 10% FBS (Normal) or 5% charcoal striped FBS (CS) for 72 hours. Western blotting assay were performed to analyze Bcl-2 expression (CS: charcoal striped). B: MCF-7 cells were cultured in EMEM medium containing insulin and 5% charcoal striped FBS for 72 hours and then treated by lasofoxifene and tamoxifen for 48 hours. Western blotting assay were performed to analyze Bcl-2 expression. C. MCF-7 were cultured in EMEM medium containing insulin and 10% FBS for 72 hours and then treated by lasofoxifene and tamoxifen for 48 hours. Western blotting assay were performed to analyze Bcl-2 expression. […] E. Statistical analysis of three repeats of part C. N=3×3.
HEK-293, MCF-7, MDA-MB-231, HBE, H1299 and H460 cells were grown following ATCC protocol. The expression level of estrogen-bound receptors was measured using western blotting. Briefly, 80-90% confluence cells were harvested and lysed in RIPA buffer or 1×PBS containing 1% triton-x-100 and protease inhibitor cocktail. Total protein concentration was measured using Bio-rad protein staining dye. Western blotting was performed following standard protocol using nitrocellulose membrane (Millipore) and Bio-rad semi-dry transfer system. The equal amount of total protein from cell lysate was loaded to SDS-PAGE for western blotting. The expression level of ER-α36 and 66, ER-β and GPER1 was measured using antibody.
Estrogen and ER complex binds to estrogen response element (ERE) in chromosome to regulate RNA transcription. Bcl-2 is a key member of anti-apoptosis family proteins. Its overexpression has been linked to many kinds of cancers in human being. […] We first assessed whether lasofoxifene inhibited Bcl-2 expression at higher efficiency compared to tamoxifen. MCF-7 cells were grown in DMEM medium containing insulin and 10% FBS or 5% charcoal striped FBS for 72 h. Cells were then treated by lasofoxifene and tamoxifen for 48 h. We confirmed previous study that the expression of Bcl-2 protein was enhanced by culture medium containing estrogen compared with that containing charcoal-stripped (CS) FBS (FIGS. 2A and B, Blank).
(Immunoblotting shows a protein as a band on a membrane.)

In assay [4] the test system is MDA-MB231 breast cancer cells. Nature of the assay: Proliferation of triple negative MDA-MB231 breast cancer cells. The class given is cell-based. As to conditions: ER-α36 positive MDA-MB231, DMEM 10% FBS, FIG. 9. An excerpt:
MDA-MB231 cells treated with lasofoxifene in DMEM medium containing 10% FBS. N=3×3; * and ** mean P<0.05 and P<0.01, respectively.

T1 sequence (Q99527 whole entry, species assumed): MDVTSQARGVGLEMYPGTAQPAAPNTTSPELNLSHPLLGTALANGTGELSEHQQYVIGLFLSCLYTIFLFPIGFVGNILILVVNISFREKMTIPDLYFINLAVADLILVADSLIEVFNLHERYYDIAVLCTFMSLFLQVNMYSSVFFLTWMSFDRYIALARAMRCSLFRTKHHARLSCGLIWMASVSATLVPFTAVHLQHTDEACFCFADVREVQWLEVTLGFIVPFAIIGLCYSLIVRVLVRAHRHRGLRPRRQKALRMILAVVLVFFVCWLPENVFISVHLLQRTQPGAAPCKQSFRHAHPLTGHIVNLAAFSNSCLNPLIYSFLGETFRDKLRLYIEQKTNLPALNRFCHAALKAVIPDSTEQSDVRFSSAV
Sequence of ER-β (Q92731 whole entry, species assumed): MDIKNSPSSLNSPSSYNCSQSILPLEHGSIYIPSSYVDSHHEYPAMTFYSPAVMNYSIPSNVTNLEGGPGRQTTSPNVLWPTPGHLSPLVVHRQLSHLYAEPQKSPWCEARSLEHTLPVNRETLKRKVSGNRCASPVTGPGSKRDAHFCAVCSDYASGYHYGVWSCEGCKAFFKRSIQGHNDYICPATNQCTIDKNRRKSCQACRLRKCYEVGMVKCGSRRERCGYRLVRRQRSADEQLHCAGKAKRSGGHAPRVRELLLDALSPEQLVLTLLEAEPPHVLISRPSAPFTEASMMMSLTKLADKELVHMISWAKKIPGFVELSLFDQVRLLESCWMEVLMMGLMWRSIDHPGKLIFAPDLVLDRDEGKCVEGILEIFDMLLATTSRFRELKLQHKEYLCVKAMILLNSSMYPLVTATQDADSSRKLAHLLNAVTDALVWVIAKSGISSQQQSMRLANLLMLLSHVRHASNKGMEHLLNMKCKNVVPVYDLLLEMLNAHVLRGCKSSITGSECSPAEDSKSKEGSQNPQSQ
Description for GPER1: A. HEK293 cells were transfected with either GPER1-EGFP or EGFP alone.
The assays were performed as following. Briefly, cells were grown on a glass-bottomed perfusion chamber mounted on the stage of an inverted confocal microscope (Andor), and then incubated with 2 μM Fura-red AM (Molecular Probes, Eugene, Oreg., USA) for 60 min at 37° C. in normal culture media. Cells were then perfused continuously with Hanks' balanced salt solution (Sigma) containing 1.8 mM CaCl2 and 0.8 mM MgCl2, pH 7.4. […] Cells were perfused with complete culture media without phenol red, and Fura-red was excited at 572 nm. The fluorescence emitted at 657 nm was then collected and recorded using a CCD-based imaging system running software (Andor).

For the compound `COc1cc2ncnc(Nc3ccc(F)c(Cl)c3)c2cc1OCCCN1CCOCC1` [gefitinib], the “proliferation of H1299 cells, gefitinib alone or combined” value with H1299 cells (concentration not given, FIG. 5D) was “did not inhibit H1299 cell proliferation”. Further, the “proliferation of H460 cells, gefitinib alone or combined” value in the assay on H460 cells (concentration not given, FIG. 5C) is reported as “inhibited the proliferation of H460”.
Regarding `Oc1ccc2c(c1)CC[C@H](c1ccccc1)[C@@H]2c1ccc(OCCN2CCCC2)cc1` [lasofoxifene, (−)-cis-(5R,6S)-6-phenyl-5-[4-(2-pyrrolidin-1-ylethoxy)phenyl]-5,6,7,8-tetrahydronaphthalen-2-ol], the “inhibition of MCF-7 cell division, without vs with insulin (IC50 comparison)” value with MCF-7 cells was “more effectively inhibited divisions of MCF-7 cell which positively expressed ER-α36”. Also, the “proliferation of Herceptin-resistance BT474 cells” value in assay [1] was “Sensitive response”. Also, the “gastric cancer cell division” value with gastric cancer cells is “inhibited gastric cancer cell division”. Also, the “colon cancer cell division” value with colon cancer cells is given as “inhibited colon cancer cell division”. The “affinity for ER-β relative to those reported for raloxifene and tamoxifen” value on ER-β is reported as “at least 10 fold”. For the same compound, the “cytosolic [Ca2+]i” value on GPER1 is “significantly enhanced cytosolic [Ca^2+]i”. Moreover, the inhibition at 2 µM in assay [2] (Homo sapiens, MCF7, MCF-7 induced by tamoxifen for over 10 months, read-out: inhibiting activity on proliferation) was greater than 50%. Also, the “proliferation of H1299 cells” value with H1299 cells (2 μM, ER-α36 high, weak EGFR, FIG. 5-D) is given as “inhibited”. Further, in the assay on H460 cells, the “proliferation of H460 cells” value was “inhibited”. Further, the “growth of xenograft H460 tumors” value in the assay with xenograft H460 tumors is recorded as “inhibited the growth of xenograft H460 tumors”. In addition, the “proliferation of HBE cells” value in the assay on HBE cells is listed as “Neither tamoxifen nor lasofoxifene affected the proliferation of HBE cells”. Also, the “affinity for ER-α relative to those reported for raloxifene and tamoxifen” value at ER-α (higher affinity than raloxifene and tamoxifen, Gennari 2006) is listed as “at least 10 fold”. The “binding affinity to ER-αLBD” value on ER-α (reported value) was 1.5 nM. For the same compound, the “effect on Bcl-2 expression in medium without estrogen” value in [3] (treated 48 h) was “neither tamoxifen nor lasofoxifene affected Bcl-2 expression”. Further, the “inhibition of Bcl-2 expression” value in assay [3] (MCF-7, medium with insulin and 10% FBS 72 h, treated 48 h, 2.5 μM LAS vs 2.5 μM TAM, FIG. 2C) is given as “weaker activity to inhibit Bcl-2 expression compared with tamoxifen”. In addition, the “dose dependence of Bcl-2 expression inhibition” value in assay [3] (MCF-7, medium with insulin and 10% FBS, 48 h, FIG. 2D) is on record as “inhibited Bcl-2 expression in a dosage dependent manner”. In addition, the “proliferation of triple negative breast cancer cells” value in assay [4] is given as “the same lasofoxifene activity was also found”.
In the case of `O=C(c1ccc(OCCN2CCCCC2)cc1)c1c(-c2ccc(O)cc2)sc2cc(O)ccc12` [raloxifene], the “cytosolic [Ca2+]i” value on GPER1 is “significantly enhanced cytosolic [Ca^2+]i”.
Take `CC/C(=C(\c1ccccc1)c1ccc(OCCN(C)C)cc1)c1ccccc1` [tamoxifen]: the “inhibition of MCF-7 cell division, without vs with insulin (IC50 comparison)” value in the assay on MCF-7 cells is reported as “exerted the opposite effect”. Moreover, in assay [2] (2 μM, MCF-7 induced by tamoxifen for over 10 months), the “inhibiting activity on proliferation” value was “did not inhibit MCF-7 cell proliferation”. Moreover, in the assay on H460 cells, the “proliferation of H460 cells” value was “exhibited opposite effect”. Moreover, the “proliferation of HBE cells” value in the assay on HBE cells was “Neither tamoxifen nor lasofoxifene affected the proliferation of HBE cells”. Also, the “effect on Bcl-2 expression in medium without estrogen” value in assay [3] (treated 48 h) is on record as “neither tamoxifen nor lasofoxifene affected Bcl-2 expression”.

The values are drawn from patent US10624874B2, “Lasofoxifene modulation of membrane-initiated estrogen signals and methods for tumor treatment” (Zhejiang Jiachi Development Pharmaceuticals LTD, priority 2017, dated 2020).
